Data set [1] in a line: Plasma concentration in cynomolgus monkey at 1 mg/kg, po after 48 hrs by LC-MS analysis. Type of data set: ADME, organism-based, Macaca fascicularis.
In data set [2] the test system is Cynomolgus monkey. Put plainly: Increase in plasma LDL cholesterol in orally dosed cynomolgus monkey. It is filed as functional, Macaca fascicularis.
A short description of data set [3]: Cmax in cynomolgus monkey at 1 mg/kg, po by LC-MS analysis. It is filed as ADME, organism-based, Macaca fascicularis. Further details: dose 1 mg/kg, route oral. Particulars: in vivo.
The test system of data set [4] is Cynomolgus monkey. The experiment in a line: In vivo transactivation in po dosed cynomolgus monkey blood assessed as induction ABCG1 mRNA expression after 24 hrs by PCR analysis. It is filed as functional, organism-based. Particulars: Macaca fascicularis.
For data set [5], the system named is Cynomolgus monkey. The experiment in a line: Increase in plasma triglycerides in orally dosed cynomolgus monkey. Type of data set: functional, Macaca fascicularis.
The nature of data set [6]: Tmax in cynomolgus monkey at 1 mg/kg, po by LC-MS analysis. Type of data set: ADME, organism-based, Macaca fascicularis. Particulars: in vivo.
Data set [7] deals with Cynomolgus monkey. The experiment in a line: In vivo transactivation of LXRbeta in cynomolgus monkey assessed as induction of ABCG1 expression at 1 mg/kg, po by PCR analysis. Type of data set: functional, Macaca fascicularis.
Data set [8] deals with T1, Oxysterols receptor LXR-beta (Homo sapiens, UniProt P55055).
T1 sequence (P55055 whole entry): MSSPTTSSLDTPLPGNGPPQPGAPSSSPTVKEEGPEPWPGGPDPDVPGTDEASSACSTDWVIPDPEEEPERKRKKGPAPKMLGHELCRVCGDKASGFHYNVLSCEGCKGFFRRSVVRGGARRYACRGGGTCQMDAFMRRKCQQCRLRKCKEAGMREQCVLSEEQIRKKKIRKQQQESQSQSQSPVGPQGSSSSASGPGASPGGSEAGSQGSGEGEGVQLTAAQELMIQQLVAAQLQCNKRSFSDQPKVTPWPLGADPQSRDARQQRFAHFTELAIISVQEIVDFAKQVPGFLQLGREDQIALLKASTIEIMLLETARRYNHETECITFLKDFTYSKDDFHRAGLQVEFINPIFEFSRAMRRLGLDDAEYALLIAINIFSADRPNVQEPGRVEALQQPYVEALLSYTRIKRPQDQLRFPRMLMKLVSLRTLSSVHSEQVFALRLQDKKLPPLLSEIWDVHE
Put plainly: Agonist activity at human LXRbeta-LBD (196 to 461 amino acids) expressed in HEK293T cells by luciferase reporter gene assay. Type of data set: cell-based.

Data set [9] concerns T2, Oxysterols receptor LXR-alpha (Homo sapiens), Q13133 [R305G].
T2 sequence (whole entry): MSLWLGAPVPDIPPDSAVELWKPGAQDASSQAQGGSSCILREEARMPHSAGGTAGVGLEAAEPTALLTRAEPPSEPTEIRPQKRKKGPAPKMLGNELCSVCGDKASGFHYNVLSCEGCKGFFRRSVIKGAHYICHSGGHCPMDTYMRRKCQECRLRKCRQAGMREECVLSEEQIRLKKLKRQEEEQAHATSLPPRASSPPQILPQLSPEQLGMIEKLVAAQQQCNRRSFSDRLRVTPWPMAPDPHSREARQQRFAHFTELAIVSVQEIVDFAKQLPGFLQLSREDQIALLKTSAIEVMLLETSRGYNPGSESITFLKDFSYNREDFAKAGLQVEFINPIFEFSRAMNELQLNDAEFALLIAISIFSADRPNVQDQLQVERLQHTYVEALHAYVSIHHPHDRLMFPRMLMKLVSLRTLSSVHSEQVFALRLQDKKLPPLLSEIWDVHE
Put plainly: Agonist activity at human GAL-tagged LXRbeta-LBD R305G mutant transfected in HEK293T cells assessed as co-activator recruitment using NCoR as co-repressor by TR-FRET assay relative to TO901317. Type of data set: cell-based.

In data set [10] the target is T3, Oxysterols receptor LXR-alpha (Homo sapiens, UniProt Q13133).
T3 sequence (Q13133 whole entry): T2 sequence (whole entry) with G305R
The experiment in a line: Agonist activity at human LXRalpha-LBD (182 to 447 amino acids) expressed in HEK293T cells by luciferase reporter gene assay. Type of data set: cell-based.

In data set [11] the test system is T2, Oxysterols receptor LXR-alpha (Homo sapiens), Q13133 [R305G]. Put plainly: Agonist activity at human GAL-tagged LXRbeta-LBD R305G mutant transfected in HEK293T cells assessed as co-activator recruitment using TRAP220 as co-activator by TR-FRET assay relative to TO901317. It is filed as cell-based.
The target in data set [12] is T4, Oxysterols receptor LXR-beta (Homo sapiens) (UniProt P55055).
T4 sequence (whole entry): T1 sequence (P55055 whole entry)
Put plainly: Agonist activity at human GAL-tagged LXRbeta-LBD F271A mutant transfected in HEK293T cells assessed as co-repressor recruitment using SMRT as co-repressor by TR-FRET assay relative to TO901317. It is filed as cell-based. Background: TR-FRET usually uses a lanthanide donor and a delayed reading to cut background.

For data set [13], the target named is T4, Oxysterols receptor LXR-beta (Homo sapiens). The experiment in a line: Agonist activity at human GAL-tagged LXRbeta-LBD F271A mutant transfected in HEK293T cells assessed as co-activator recruitment using D22 as co-activator by TR-FRET assay relative to TO901317. It is filed as cell-based.
Data set [14] has as its target T1, Oxysterols receptor LXR-beta. The experiment in a line: Agonist activity at GAL4-tagged human LXRbeta LBD expressed in HEK293T cells after 12 hrs by luciferase reporter gene assay. Type of data set: cell-based. Background: In a reporter assay the amount or activity of a reporter protein is the signal.
For data set [15] the target is unchanged. Put plainly: Agonist activity at human full length LXRbeta expressed in African green monkey CV-1 cells co-expressing human pCMX/RXRalpha after 20 hrs by luciferase reporter gene assay. Type of data set: cell-based.
The species entered for the next data set is Homo sapiens. Put plainly: Toxicity in human assessed as decrease in mean neutrophil count at 15 mg after 7 days relative to baseline control. Type of data set: organism-based. Further details: scale not given: the % may be the effect or the level left. Particulars: in vivo, 168 h.
In data set [16] the target is T5, Oxysterols receptor LXR-alpha (Homo sapiens) (UniProt Q13133).
T5 sequence (whole entry): T2 sequence (whole entry) with G305R
Put plainly: Agonist activity at human LXRalpha expressed in HEK293 cells after 24 hrs by One-Glo luciferase reporter gene assay relative to TO901317. Type of data set: cell-based.

In data set [17] the target is T3, Oxysterols receptor LXR-alpha. Put plainly: Agonist activity at human LXRalpha expressed in HEK293 cells after 24 hrs by One-Glo luciferase reporter gene assay. Type of data set: cell-based.
Data set [18] has the same target. The experiment in a line: Inverse agonist activity at LXRalpha (unknown origin) expressed in HEK293 cells 24 hrs by Dual-Glo luciferase assay. Type of data set: cell-based.
In the next data set the test system is Mus musculus. The experiment in a line: Reduction in hepatic collagen deposition in mouse at 30 mg/kg, ip for 30 days. It is filed as functional. Particulars: 720 h.
The target in data set [19] is T1, Oxysterols receptor LXR-beta. Put plainly: Inverse agonist activity at LXRbeta (unknown origin) expressed in HEK293 cells 24 hrs by Dual-Glo luciferase assay. Type of data set: cell-based.

Substitutions are numbered along the chain they refer to.

The Cmax is the peak of the concentration-time curve. For orientation: EC50 means the concentration giving half of the maximal effect. A word on the Tmax: it is the time at which the peak concentration occurs. In [1], `CC(C)(O)c1cn(-c2ccc(-c3cccc(S(C)(=O)=O)c3)cc2)c(C(C)(C)c2ccccc2Cl)n1` [BMS-779788] returned a concentration at 48 h of 154 nM. Moreover, the entries for the “fold change (FC)” value in the data set on Cynomolgus monkey [2], in the data set with Cynomolgus monkey [5] and in the data set on Cynomolgus monkey [7] were 12, 29 and 4.7, respectively. For the same compound, in data set [3], the Cmax stood at 2230 nM. Moreover, in the data set on Cynomolgus monkey [4], the EC50 stood at 0.61 µM. In addition, in data set [6], the Tmax is 2 h.
Turning to `CN(CC(=O)Nc1ccc(F)c(F)c1F)C(=O)c1ccc2c(c1)OCCO2`, the values for the EC50 in data set [8] and in data set [10] were 0.53 µM and 0.15 µM, respectively. Besides, the Activity is 31% in data set [9], 18% in [11], 23% in data set [12] and 13% in [13].
With `Cc1c(C(=O)OC(C)C(=O)N2CCNC2=O)oc2cc(F)ccc12` (stereo not drawn), in [14], a half-maximal response (EC50) required 0.72 µM.
Take `CS(=O)(=O)c1cccc(-c2ccc(-c3cc(C(F)(F)F)nn3-c3ccccc3Cl)s2)c1`: the EC50 in data set [15] stood at 0.108 µM.
Consider `CC(C)(O)c1cn(-c2ccc(-c3cc(F)c(CO)c(S(C)(=O)=O)c3)cc2F)c(C(C)(C)c2c(Cl)cccc2Cl)n1` [BMS-852927], for which, in the data set filed under Homo sapiens, the Activity stood at 47%.
A word on the Emax: it is the maximal effect, on the per cent scale that the assay sets. Regarding `COC1CCN(C(=O)CC[C@@H](C)[C@H]2CC[C@H]3[C@@H]4CC=C5C[C@@H](O)CC[C@]5(C)[C@H]4CC[C@]23C)CC1`, the Emax in data set [16] was determined as 58%. For the same compound, the EC50 in data set [17] stood at 0.23 µM.
As usually defined, the IC50 is the concentration at which inhibition is half-maximal. In general, inhibition in vivo refers to the change of the read-out against control, counted positive when it falls. Take `CCOC(=O)c1ccc(CN(Cc2ccc(-c3cccc(S(C)(=O)=O)c3)cc2)S(=O)(=O)c2c(C)cc(C)cc2C)o1`: the values for the IC50 in data set [18] and in [19] were 0.214 µM and 0.043 µM, respectively. Besides, in the data set with Mus musculus, 30 mg/kg produced 90% inhibition in vivo.
As for `C[C@H](CCC(=O)N(C)C)[C@H]1CC[C@H]2[C@@H]3CC=C4C[C@@H](O)CC[C@]4(C)[C@H]3CC[C@]12C`, the Emax in [16] stood at 45%. The same compound had an EC50 in data set [17] of 0.422 µM.

(Values after ChEMBL document CHEMBL4257563, “Recent Advances in the Medicinal Chemistry of Liver X Receptors” (J Med Chem, 2018).)
